Measured values: patent publication US11253497B2, “Use of derivatives of polyunsaturated fatty acids as medicaments” (Lipopharma Therapeutics, S.L., priority 2009, dated 2022)

Assays:
[1] = tested on: breast cancer cells MDA-MB-231; assay: Growth of breast cancer cells MDA-MB-231; type: cell-based; settings: 72 hours of incubation
Experimental: (§1) For the experiments shown in FIG. 1, cultured human Non Small Cell Lung Cancer cells (A549) in RPMI 1640 were used, supplemented with 10% foetal bovine serum and antibiotics, at 37° C. and 5% CO2. […] After treatment, cell count was performed and the study of the mechanisms involved in the antitumor activity of compounds was evaluated by flow cytometry. […] These values correspond to averages of three independent experiments.
(§2) These charts show the antitumor efficacy of the compounds of this invention against the growth of breast cancer cells, brain (glioma), and lung cancer. […] The other experimental conditions are identical to those described in the preceding paragraph.

[2] = tested on: brain cancer cell (glioma) U118; assay: Brain cancer (glioma) U118 cell growth; type: cell-based; settings: 72 hours of incubation
Experimental: For the experiments shown in FIG. 1, cultured human Non Small Cell Lung Cancer cells (A549) in RPMI 1640 were used, supplemented with 10% foetal bovine serum and antibiotics, at 37° C. and 5% CO2. Cells were maintained in culture for 48 hours in the presence or absence of D-PUFAs and PUFAs indicated in Table 2 at a concentration of 250 µM. After treatment, cell count was performed and the study of the mechanisms involved in the antitumor activity of compounds was evaluated by flow cytometry. […] These values correspond to averages of three independent experiments.
as §2

lung cancer cells A549 = assay: Growth of lung cancer cells A549 (IC50); type: cell-based, human; settings: 72 hours of incubation
Experimental: as §1, §2

[3] = Lamellar-to-hexagonal (HII) transition temperature in DEPE model membranes by Differential Scanning Calorimetry; type: physicochemical; settings: DEPE membranes, DEPE:D-PUFA 10:1 (mol:mol)
Experimental: The transition temperature was determined by Differential Scanning Calorimetry. The proportion DEPE:D-PUFA was 10:1 (mol:mol) in all cases. Lamellar-to-hexagonal transition is an important parameter that reflects relevant signalling properties of cell membranes. […] When this occurs, certain peripheral membrane proteins (such as G proteins, protein kinase C or Ras protein) can more easily bind to the membrane, while others have a poor interaction (e.g., the Gα-protein), so changes in the HII transition temperature are important in regulating cellular functions related to health and human therapy (Escriba et al., 1995, Vogler et al., 2004; Escriba, 2006).
Control values correspond to model membranes in the absence of fatty acids. The reduction in HII transition temperature obtained by using the D-PUFA of the invention indicates an increased induction of membrane discontinuities, generating anchoring sites in the membrane for peripheral proteins and leads to better regulation of cell signalling and, therefore, greater effectiveness in the control of certain diseases.

SMILES	IC50 [1] [µM]	IC50 [2] [µM]	IC50 (lung cancer cells A549) [µM]	Temperature of lamellar-to-hexagonal transition [3] [°C]
CCCCCC=CCC=CCCCCCCC(O)C(=O)O (stereo not drawn) [182C1]	386	208	635	–
CCCCCC=CCC=CCCCCCCC(O)C(=O)OC (stereo not drawn) [182D1]	277	221	541	51
CCCCCC=CCC=CCCCCCCC(O)C(=O)OCC (stereo not drawn) [182E1]	289	213	387	50.6
CCCCCC=CCC=CCCCCCCC(OC)C(=O)O (stereo not drawn) [182G1]	378	205	439	51
CCCCCC=CCC=CCCCCCCC(OC)C(=O)OC (stereo not drawn) [182H1]	402	267	462	–
CCCCCC=CCC=CCCCCCCC(OC)C(=O)OCC (stereo not drawn) [182I1]	411	240	673	–
CCCCCC=CCC=CCCCCCCC(C)C(=O)OC (stereo not drawn) [182M1]	362	238	286	–
CCCCCC=CCC=CCCCCCCC(Cl)C(=O)OCC (stereo not drawn) [182O1]	286	–	452	51.7
CCCCCC=CCC=CCCCCCCC(CO)C(=O)OCC (stereo not drawn) [182Q1]	328	–	293	–
CCCCCC=CCC=CCCCCCCC(OP(=O)(OCC)OCC)C(=O)OCC (stereo not drawn) [182R1]	371	255	317	52.2
CCCCCC=CCC=CCCCCCCC(F)C(=O)OCC (stereo not drawn) [182T1]	391	214	379	–
CCCCCC=CCC=CCCCCCCC(OC=O)C(=O)OC (stereo not drawn) [182U1]	410	212	255	–
CCCCCC=CCC=CCCCCCCC(C(=O)OCC)N(OCC)OCC (stereo not drawn) [182W1]	391	246	416	–
CCC=CCC=CCC=CCCCCCCC(O)C(=O)O (stereo not drawn) [183C1]	289	–	281	–
CCCCCC=CCC=CCC=CCCCC(O)C(=O)O (stereo not drawn) [183C2]	168	379	241	–
CCC=CCC=CCC=CCCCCCCC(O)C(=O)OC (stereo not drawn) [183D1]	245	–	326	51.1
CCCCCC=CCC=CCC=CCCCC(O)C(=O)OC (stereo not drawn) [183D2]	175	385	267	49.4
CCC=CCC=CCC=CCCCCCCC(O)C(=O)OCC (stereo not drawn) [183E1]	319	–	294	49.8
CCCCCC=CCC=CCC=CCCCC(O)C(=O)OCC (stereo not drawn) [183E2]	193	–	243	49.3
CCC=CCC=CCC=CCCCCCCC(OC)C(=O)O (stereo not drawn) [183G1]	364	329	273	50.3

SMILES	IC50 [1] [µM]	IC50 [2] [µM]	IC50 (lung cancer cells A549) [µM]	Temperature of lamellar-to-hexagonal transition [3] [°C]
CCC=CCC=CCC=CCCCCCCC(OC)C(=O)OC (stereo not drawn) [183H1]	308	408	319	–
CCCCCC=CCC=CCC=CCCCC(OC)C(=O)OC (stereo not drawn) [183H2]	170	443	219	–
CCC=CCC=CCC=CCCCCCCC(OC)C(=O)OCC (stereo not drawn) [183I1]	274	321	348	–
CCCCCC=CCC=CCC=CCCCC(OC)C(=O)OCC (stereo not drawn) [183I2]	210	432	276	–
CCC=CCC=CCC=CCCCCCCC(C)C(=O)OC (stereo not drawn) [183M1]	407	349	322	–
CCCCCC=CCC=CCC=CCCCC(C)C(=O)OC (stereo not drawn) [183M2]	164	407	248	–
CCCCCC=CCC=CCC=CCCCC(Cl)C(=O)OCC (stereo not drawn) [183O2]	217	–	318	51.3
CCC=CCC=CCC=CCCCCCCC(CO)C(=O)OCC (stereo not drawn) [183Q1]	312	282	273	–
CCCCCC=CCC=CCC=CCCCC(CO)C(=O)OCC (stereo not drawn) [183Q2]	205	392	314	–
CCC=CCC=CCC=CCCCCCCC(F)C(=O)OCC (stereo not drawn) [183T1]	290	368	367	–
CCCCCC=CCC=CCC=CCCCC(F)C(=O)OCC (stereo not drawn) [183T2]	216	423	279	–
CCC=CCC=CCC=CCCCCCCC(OC=O)C(=O)OC (stereo not drawn) [183U1]	344	343	294	–
CCCCCC=CCC=CCC=CCCCC(OC=O)C(=O)OC (stereo not drawn) [183U2]	228	380	287	–
CCC=CCC=CCC=CCCCCCCC(C(=O)OCC)N(OCC)OCC (stereo not drawn) [183W1]	311	–	352	–
CCCCCC=CCC=CCC=CCCCC(C(=O)OCC)N(OCC)OCC (stereo not drawn) [183W2]	203	438	212	–
CCCCCC=CCC=CCC=CCC=CCCC(O)C(=O)O (stereo not drawn) [204C1]	389	287	521	–
CCCCCC=CCC=CCC=CCC=CCCC(OC)C(=O)OC (stereo not drawn) [204H1]	363	263	398	–
CCCCCC=CCC=CCC=CCC=CCCC(OC)C(=O)OCC (stereo not drawn) [204I1]	315	328	459	–
CCCCCC=CCC=CCC=CCC=CCCC(OC(C)=O)C(=O)OC (stereo not drawn) [204J1]	285	296	362	–
CCCCCC=CCC=CCC=CCC=CCCC(C)C(=O)OC (stereo not drawn) [204M1]	321	309	375	–

SMILES	IC50 [1] [µM]	IC50 [2] [µM]	IC50 (lung cancer cells A549) [µM]	Temperature of lamellar-to-hexagonal transition [3] [°C]
CCCCCC=CCC=CCC=CCC=CCCC(Cl)C(=O)OCC (stereo not drawn) [204O1]	298	–	461	49.7
CCCCCC=CCC=CCC=CCC=CCCC(CO)C(=O)OCC (stereo not drawn) [204Q1]	306	324	348	–
CCCCCC=CCC=CCC=CCC=CCCC(F)C(=O)OCC (stereo not drawn) [204T1]	317	385	352	–
CCCCCC=CCC=CCC=CCC=CCCC(OC=O)C(=O)OC (stereo not drawn) [204U1]	369	263	270	–
CCCCCC=CCC=CCC=CCC=CCCC(C(=O)OCC)N(OCC)OCC (stereo not drawn) [204W1]	311	287	341	–
CCC=CCC=CCC=CCC=CCC=CCCC(O)C(=O)O (stereo not drawn) [205C1]	223	442	325	–
CCC=CCC=CCC=CCC=CCC=CCCC(OC)C(=O)OC (stereo not drawn) [205H1]	282	439	290	–
CCC=CCC=CCC=CCC=CCC=CCCC(OC)C(=O)OCC (stereo not drawn) [205I1]	261	510	351	–
CCC=CCC=CCC=CCC=CCC=CCCC(C)C(=O)OC (stereo not drawn) [205M1]	216	462	293	–
CCC=CCC=CCC=CCC=CCC=CCCC(Cl)C(=O)OCC (stereo not drawn) [205O1]	264	–	418	48.6
CCC=CCC=CCC=CCC=CCC=CCCC(CO)C(=O)OCC (stereo not drawn) [205Q1]	247	419	365	–
CCC=CCC=CCC=CCC=CCC=CCCC(F)C(=O)OCC (stereo not drawn) [205T1]	233	427	322	–
CCC=CCC=CCC=CCC=CCC=CCCC(OC=O)C(=O)OC (stereo not drawn) [205U1]	272	454	426	–
CCC=CCC=CCC=CCC=CCC=CCCC(C(=O)OCC)N(OCC)OCC (stereo not drawn) [205W1]	256	443	420	–
CCC=CCC=CCC=CCC=CCC=CCC=CCC(O)C(=O)O (stereo not drawn) [226C1]	210	237	214	–
CCC=CCC=CCC=CCC=CCC=CCC=CCC(OC)C(=O)OC (stereo not drawn) [226H1]	199	294	247	–
CCC=CCC=CCC=CCC=CCC=CCC=CCC(OC)C(=O)OCC (stereo not drawn) [226I1]	241	327	298	–
CCC=CCC=CCC=CCC=CCC=CCC=CCC(C)C(=O)OC (stereo not drawn) [226M1]	267	306	208	–
CCC=CCC=CCC=CCC=CCC=CCC=CCC(CO)C(=O)OCC (stereo not drawn) [226Q1]	263	254	252	–
CCC=CCC=CCC=CCC=CCC=CCC=CCC(F)C(=O)OCC (stereo not drawn) [226T1]	199	263	243	–
